Converted amounts (≈) assume the structure as drawn.
Experiments:
[1] = Hygroscopicity assay, standing 48 hours at 25° C., humidity 79%; assay type: physicochemical; conditions: 48 hours, 25° C., humidity 79%
Protocol: The hygroscopicity test of the compounds of the present disclosure after standing for 48 hours
1. The arid glass weighing bottle with a tap (external diameter is 50 mm, the height is 15 mm) was placed at 25° C.±1° C. suitably in a thermostatic drier (saturated ammonium sulfate solution was laid in the lower part, humidity was 79%) the day before the assay, precise weight was measured as (m1);
2. The above weighing bottle was covered with the compounds of the invention (about 1 g), and the thickness of the compounds were generally 1 mm, precise weight was measured as (m2);
3. The mouth of the weighing bottle was kept open and placed with the tap in the above conditions with constant temperature and humidity for 48 hours;
4. Put the tap back on the bottle, precise weight was measured as (m3)
The degree of hygroscopicity was defined as follows: […]
Deliquesce: turning into liquid by absorbing enough moisture.
High hygroscopicity: the percentage of hygroscopicity weight gain is not less than 15%.
Hygroscopicity: the percentage of hygroscopicity weight gain is less than 15%, but not less than 2%.
Sparing hygroscopicity: the percentage of hygroscopicity weight gain is less than 2%, but not less than 0.2%.
No hygroscopicity or almost no hygroscopicity: the percentage of hygroscopicity weight gain is less than 0.2%.

human TPOR = molecular target: T1, human TPOR (Homo sapiens, UniProt P40238); assay: Proliferation effect on BAF3-TPOR cell (CCK-8); assay type: cell-based; conditions: rate relative to rhTPO positive control
T1 construct: host or cells: BaF3 (murine pro-B cells), stably transfected, G418-selected
T1 sequence (P40238 26-635): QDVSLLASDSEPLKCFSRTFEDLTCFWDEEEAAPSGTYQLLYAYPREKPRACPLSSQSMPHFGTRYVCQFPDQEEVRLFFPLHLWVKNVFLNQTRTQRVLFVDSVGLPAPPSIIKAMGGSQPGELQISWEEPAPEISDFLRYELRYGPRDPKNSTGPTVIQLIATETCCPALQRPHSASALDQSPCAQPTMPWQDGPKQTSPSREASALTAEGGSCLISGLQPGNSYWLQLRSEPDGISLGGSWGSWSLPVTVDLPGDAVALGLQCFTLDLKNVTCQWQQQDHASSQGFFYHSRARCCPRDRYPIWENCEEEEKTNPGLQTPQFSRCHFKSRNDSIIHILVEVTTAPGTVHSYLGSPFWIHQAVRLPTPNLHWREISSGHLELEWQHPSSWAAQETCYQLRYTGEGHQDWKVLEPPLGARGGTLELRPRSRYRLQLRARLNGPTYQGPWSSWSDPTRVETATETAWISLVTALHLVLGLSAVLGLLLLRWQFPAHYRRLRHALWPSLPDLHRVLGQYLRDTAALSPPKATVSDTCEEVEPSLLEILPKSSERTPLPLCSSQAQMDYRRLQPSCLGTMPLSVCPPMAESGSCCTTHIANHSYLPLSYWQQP
Protocol: (1) Plasmid constructs: based on the TPO receptor (TPOR) sequence information from Entrez (Gene ID: 4325, Refseq: NM_005373), dual-site mutation was performed on EX-B0010-M02 plasmid by using QuikChange® Multi Site Directed Mutagenesis Kit (Stratagene). The sequence of primers containing multi-sites mutation was designed as follows: […]
The E. coli DH5α competent cells were transformed with mutated plasmid, and positive colonies were picked up through ampicillin selection. The mutation result was confirmed by sequence analysis.
(2) BAF3-TPOR stable transfected cell line: the following method was used to construct the BaF3 cell which stably over-expressed functional human TPOR. The successfully mutated EX-B0010-M02 plasmid ([…]) which expressed human TPOR and screening gene neomycin was transfected into wild-type BaF3 cells (1×10^7) by electroporation at 250V for 18 ms using an electric pulse generator (Electro Square Porator ECM830, BTX Division of Genetronic, Inc. US). The stable transfected cells BAF3-TPOR were selected with G418 (Gibco, US), then incubated in RPMI1640 medium plus 10% FBS (Gibco, US), […] G418, 5 ng/mL, rmIL-3 (Chemicon, US).
(1) Washing cells by centrifugation: a suitable amount of cell suspension was centrifuged at 1000 rpm for 5 minutes, and the supernatant was discarded. 10 mL of cell culture media without IL-3 was added. Then the resulting cell suspension was centrifuged at 1000 rpm for 5 minutes, and the supernatant was discarded.
(2) 1 mL of cell culture media without IL-3 was added to beat upon them to equality, and the number of a suitable amount of cell suspension was counted after dilution.
(3) According to the result of the cell counting, a cell suspension in a concentration of 100,000 cell/mL was prepared.
(4) 100 μL of cell suspension was transferred to each well of 96-well culture plate, and there were 3 parallel wells, that is, there were a blank control group (B), a negative control group (N), a positive control group of TPO (P) and a test compound group (S).
(5) The test compound was dissolved in DMSO to prepare a 10 mM stock solution, and then the solution was diluted with RPMI 1640 medium into a series of test samples at different concentration: 30 μM, 10 μM, 3 μM, 1 μM, 0.3 μM, 0.1 μM, 0.03 μM, 0.01 μM, 0.003 μM, 0.001 μM.
(6) 10 μL of test compound solution was transferred to each well respectively; 1 μL of rhTPO (10 ng/mL) was added to positive control well.
(7) The plates were incubated in an incubator at 5% CO2 and 37° C. for 24 hours.
(8) After incubation, 10 μL of CCK-8 solution was added to each well and the plates were incubated in the incubator for another 24 hours.
(9) OD value was detected at 450 nm by VICTORS (Perkin Elmer 1420-120) plate reader.
(1) The proliferation rate was calculated as follows: Rate=[(S−B)/(P−B)]*100%
S: OD value of wells which contain test compound.
B: OD value of blank control wells
P: OD value of positive control wells
(2) The EC50 value was calculated by Origin 7.0 software.

[2] = Pharmacokinetics assay in rats; assay type: in vivo, SD rats; conditions: SD rats, intragastric, 50 mg/Kg (as free acid); 50 mg/kg
Procedure, shortened: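 SD rats, half male and half female, dosed intragastrically with compound suspended at 5 mg/mL (as free acid) in 1% sodium carboxymethyl cellulose; fed 2 h post-dose. Plasma concentrations over time were measured by HPLC-UV. Parameters came from a compartmental fit, with Cmax and tmax as observed values.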

[3] = Pharmacokinetics assay in Beagle dogs; assay type: in vivo; conditions: intragastric, 5 mg/kg (as free acid), 5 mg/kg
Protocol: The pharmacokinetic behavior of the compounds of the present disclosure was studied and evaluated in Beagle dogs.
12 Healthy adult Beagles dogs, male, were purchased from Suzhou Xishan Drug Research and Development Colo., LTD. License number: SCXK (Suzhou) 2007-0005.
The test compound was diluted with 0.5% sodium carboxymethyl cellulose to 2.5 mg/mL (calculated as the free acid form) of suspension before use.
12 Healthy adult Beagles dogs, male, were divided into 4 groups. After an overnight fast, the dogs were administered intragastrically at a dose of 5.0 mg/kg (calculated as the free acid form), at a volume of 2 mL/kg.
Blood samples (1.2 mL) were taken from vein of forelegs at pre administration and at 0.25, 0.5, 1.0, 1.5, 2.0, 3.0, 5.0, 6.0, 8.0, 12.0, 14.0, 24.0 and 48.0 hours post administration, which were stored in heparinized tubes and centrifuged for 10 minutes at 3,500 rpm. The plasma samples were stored at −20° C. until analysis. The Beagles dogs were fed 2 hours after administration.
50 μL of Beagles dog plasma, obtained at various time points after administration, 20 μL of internal standard solution and 150 μL of methanol was added to result in protein precipitation. Then the mixture was mixed for 1 minute using a vortexer and centrifuged for 5 minutes at 11,000 rpm. 50 μL of the supernatant was analyzed by HPLC-UV.
The compartmental model of pharmacokinetics was fitted for the test compounds and the major pharmacokinetic parameters were calculated in which Cmax and tmax were the actually measured values.

[4] = Solubility assay in water, 0.1% hydrochloric acid and methanol; assay type: physicochemical
Procedure, shortened: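 Solubility was classed by the solvent volume needed to dissolve 1 g (mL) of solute, from "very soluble" (<1 mL) to "practically insoluble" (not fully dissolved in 10000 mL).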

CC1=NN(c2ccc3c(c2)CCCC3)C(=O)/C1=N\Nc1cccc(-c2ccc(C(=O)O)o2)c1O [Example 23, (Z)-5-(2-hydroxy-3-{N′-[3-methyl-5-oxo-1-(5,6,7,8-tetrahydro-naphthalen-2-yl)-1,5-dihydro-pyrazol-4-ylidene]-hydrazino}-phenyl)-furan-2-carboxylic acid choline]
Percentage of weight gain [1]: 8.48%
hygroscopicity [1]: Hygroscopicity (the percentage of hygroscopicity weight gain is less than 15%, but not less than 2%)
EC50 (human TPOR): 43 nM
Area Under Curve AUC [2]: 123 ± 89.5 µg·h/mL
Clearance CL/F [2]: 0.527 ± 0.24 L/h/kg
Half-Life t½ [2]: 7.61 ± 1.34 h
Plasma Conc. Cmax [2]: 17.2 ± 12.3 µg/mL
Time to peak Tmax [2]: 3.25 ± 3.18 h

CC1=NN(c2ccc3c(c2)CCCC3)C(=O)/C1=N\Nc1cccc(-c2ccc(C(=O)O)o2)c1O [Example 10]
Percentage of weight gain [1]: 15.7%
hygroscopicity [1]: High hygroscopicity (the percentage of hygroscopicity weight gain is not less than 15%)
EC50 (human TPOR): 16 nM
Area Under Curve AUC [2]: 381 ± 306 µg·h/mL
Clearance CL/F [2]: 0.494 ± 0.754 L/h/kg
Half-Life t½ [2]: 12.9 ± 6.32 h
Plasma Conc. Cmax [2]: 65.6 ± 44.5 µg/mL
Time to peak Tmax [2]: 1.63 ± 0.75 h
Area Under Curve AUC [3]: 9.76 µg·h/mL
Clearance CL/F [3]: 0.606 L/h/kg
Half-Life t1/2 [3]: 8.07 h
Plasma Conc. Cmax [3]: 0.81 µg/mL
Time to peak Tmax [3]: 42 min

CC1=NN(c2ccc3c(c2)C(C)(C)CC3)C(=O)/C1=N\Nc1cccc(-c2ccc(C(=O)O)o2)c1O [Example 6, (Z)-5-(3-{N′-[1-(3,3-dimethyl-indan-5-yl)-3-methyl-5-oxo-1,5-dihydro-pyrazol-4-ylidene]-hydrazino}-2-hydroxy-phenyl)-furan-2-carboxylic acid bis-(piperazine)]
solubility ([4]; 0.1% hydrochloric acid): <1 µg/mL
solubility ([4]; methanol): 3009 µg/mL (≈ 6370 µM)
solubility ([4]; water): 1 µg/mL (≈ 2.12 µM)
EC50 (human TPOR): 36 nM
Area Under Curve AUC [2]: 175 ± 41 µg·h/mL
Clearance CL/F [2]: 0.30 ± 0.084 L/h/kg
Half-Life t½ [2]: 45.0 ± 70.3 h
Mean Residence Time MRT [2]: 60.4 ± 90.2 h
Plasma Conc. Cmax [2]: 13.0 ± 6.5 µg/mL
Time to peak Tmax [2]: 2.5 ± 1.0 h
